According to the supplement of paper PMC8967900:

Columns and labels:
Assay in all cases: selective drug sensitivity score (sDSS, relative to normal bone marrow) (sDSS (score)); higher = more potent and effective on the cell line relative to normal bone marrow cells
Conditions in all cases: 72 h
MHH-CALL-2 = tested on: MHH-CALL-2
NALM-16 = tested on: NALM-16
TANOUE = tested on: TANOUE
JURKAT = tested on: JURKAT
PF-382 = tested on: PF-382
COG-LL-394h = tested on: COG-LL-394h
CCRF-HSB2 = tested on: CCRF-HSB2
COG-LL-317 = tested on: COG-LL-317
697 = tested on: 697
COG-LL-355h = tested on: COG-LL-355h
RCH-ACV = tested on: RCH-ACV
PEER = tested on: PEER
MOLT-16 = tested on: MOLT-16
SEM cells = tested on: SEM cells
COG-LL-402h = tested on: COG-LL-402h
KASUMI-2 = tested on: KASUMI-2
MHH-CALL-3 = tested on: MHH-CALL-3
COG-LL-319h = tested on: COG-LL-319h
KASUMI-9 = tested on: KASUMI-9
ALL-SIL = tested on: ALL-SIL
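Also: ALL cell lines in 384-well plates, five doses spanning 10,000-fold, each plate scaled between vehicle and 100 µmol/L benzalkonium chloride controls, sDSS an adapted area-under-curve metric.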

Structure (SMILES) | selective drug sensitivity score (MHH-CALL-2) | selective drug sensitivity score (NALM-16) | selective drug sensitivity score (TANOUE) | selective drug sensitivity score (JURKAT) | selective drug sensitivity score (PF-382) | selective drug sensitivity score (COG-LL-394h) | selective drug sensitivity score (CCRF-HSB2) | selective drug sensitivity score (COG-LL-317) | selective drug sensitivity score 697 | selective drug sensitivity score (COG-LL-355h) | selective drug sensitivity score (RCH-ACV) | selective drug sensitivity score (PEER) | selective drug sensitivity score (MOLT-16) | selective drug sensitivity score (SEM cells) | selective drug sensitivity score (COG-LL-402h) | selective drug sensitivity score (KASUMI-2) | selective drug sensitivity score (MHH-CALL-3) | selective drug sensitivity score (COG-LL-319h) | selective drug sensitivity score (KASUMI-9) | selective drug sensitivity score (ALL-SIL)
C[C@@H]1CN(CC(=O)Nc2ccc3c(c2)Cc2cccc(-c4cc(=O)cc(N5CCOCC5)o4)c2S3)C[C@H](C)O1 (top concentration 25000 nM) | 0.92 | -2.18 | -2.18 | 0.92 | 0.82 | -0.68 | 0.42 | -1.78 | 0.42 | 3.02 | 8.12 | 2.62 | 0.32 | 2.22 | 1.92 | -2.08 | -2.18 | 6.72 | 1.22 | 3.32
CNC(=O)c1ccccc1Nc1nc(Nc2ccc3c(c2OC)CCC[C@H](N2CCN(CCO)CC2)C3)ncc1Cl (top concentration 5000 nM) | 1.66 | -2.44 | -5.34 | -2.54 | -2.54 | 3.16 | -1.44 | -2.14 | 2.86 | 6.96 | 0.46 | -1.44 | 2.06 | 3.06 | -0.84 | -3.24 | -1.94 | 8.86 | 0.26 | 1.36
CCNC(=O)c1noc(-c2cc(C(C)C)c(O)cc2O)c1-c1ccc(CN2CCOCC2)cc1 [Luminespib] (top concentration 1000 nM) | -3.9 | -2.9 | -10.5 | -5.5 | -1.4 | -5.2 | 6.7 | 7.4 | -1.5 | 6.5 | 3.6 | -3.7 | 4.6 | 2.1 | 4.1 | 6.5 | 8.3 | 3.1 | -3 | -0.1
NC(=O)Nc1cc(-c2cccc(F)c2)sc1C(=O)N[C@H]1CCCNC1 [AZD7762] (top concentration 1000 nM) | 5.1 | 0.5 | -5 | -0.7 | -0.5 | -3.5 | 8.2 | 7.6 | 2.6 | -0.1 | 7.9 | -0.7 | -1.5 | 19 | 3.3 | -4.2 | 1.9 | 2.8 | 4.1 | 0
Cc1c(N)nc([C@H](CC(N)=O)NC[C@H](N)C(N)=O)nc1C(=O)N[C@H](C(=O)N[C@H](C)[C@@H](O)[C@H](C)C(=O)N[C@H](C(=O)NCCc1nc(-c2nc(C(=O)NCCC[S+](C)C)cs2)cs1)[C@@H](C)O)[C@@H](O[C@@H]1O[C@@H](CO)[C@@H](O)[C@H](O)[C@@H]1O[C@H]1O[C@H](CO)[C@@H](O)[C@H](OC(N)=O)[C@@H]1O)c1c[nH]cn1 [Bleomycin] (top concentration 10000 nM) | 3.14 | -1.86 | -1.86 | -0.96 | 1.94 | 2.24 | -0.06 | 5.14 | 4.74 | 4.14 | 7.54 | -0.66 | 4.54 | 11.1 | 2.84 | 6.44 | 4.14 | 7.84 | 6.24 | -1.36
CC(C)C[C@H](NC(=O)[C@H](CCc1ccccc1)NC(=O)CN1CCOCC1)C(=O)N[C@@H](Cc1ccccc1)C(=O)N[C@@H](CC(C)C)C(=O)[C@@]1(C)CO1 [Carfilzomib] (top concentration 1000 nM) | 1.56 | -3.64 | -8.24 | -4.04 | 1.86 | 0.26 | 3.86 | 1.06 | 0.66 | 5.06 | 0.86 | 2.56 | 1.36 | 8.56 | 2.86 | -0.04 | 2.86 | 2.56 | 1.76 | 1.66
CNC(=O)c1ccccc1Nc1cc(Nc2ccc(N3CCOCC3)cc2OC)ncc1C(F)(F)F [VS-4718] (top concentration 10000 nM) | 8.9 | 0 | -5 | 1.1 | -0.3 | -0.4 | 3.5 | -0.8 | 0.7 | 1.3 | 0.8 | 3.6 | 6.1 | 7.9 | -4.5 | -5 | -5 | -5 | 2.1 | 4.3
Cc1sc2c(c1C)C(c1ccc(Cl)cc1)=N[C@@H](CC(=O)OC(C)(C)C)c1nnc(C)n1-2 [JQ1] (top concentration 10000 nM) | 9.62 | 2.02 | -7.48 | -0.48 | 5.22 | -2.88 | 0.72 | 6.62 | 9.72 | 3.72 | 12.3 | -1.88 | 8.82 | 11.4 | 8.12 | -5.08 | 16 | 12.1 | 11.8 | -1.08
NC(=O)NO [Hydroxyurea] (top concentration 1000000 nM) | 4.56 | 0.86 | -3.94 | 3.16 | 1.26 | -1.74 | 6.66 | 15.4 | 12.8 | 0.66 | 9.66 | 5.56 | 5.76 | 5.36 | 1.56 | -2.14 | -4.44 | 9.26 | 4.26 | 3.56
